Assay results published in patent US10031417B2, “Compound, colorant including the same, positive photosensitive resin composition including the same and color filter” (SAMSUNG SDI CO., LTD., priority 2016, dated 2018).

Test: Solubility measurement in diluting solvents
Type: physicochemical
Conditions: 25° C., 100 rpm, 1 hour, 0.5 g of compound added
Experimental: 0.5 g of each compound according to Synthesis Examples 1 to 3 was respectively added to diluting solvents (MeOH, CH2Cl2, cyclohexanone), each solution was stirred with a rotary mixer (Mixrotar VMR-5, Iuchi Seieido Co., Ltd.) at 25° C. and 100 rpm for 1 hour, and then, the dissolution state of each compound (the amount of the compound dissolved in the solvents) was examined, and the results are provided in Table 1.

Amount of dissolved compound (CH2Cl2) [% wt %] | Amount of dissolved compound (Cyclohexanone) [% wt %] | Amount of dissolved compound (MeOH) [% wt %] | SMILES
>7 | 2 | >7 | CCN(CCOC(=O)Nc1ccccc1)c1ccc2c(-c3ccccc3S(=O)(=O)[O-])c3ccc(=[N+](CC)CC)cc-3oc2c1 [Chemical Formula 7]
>10 | 5 | >10 | CCN(CCOC(=O)NC(C)(C)C)c1ccc2c(-c3ccccc3S(=O)(=O)[O-])c3cc/c(=[N+](/CC)CCOC(=O)NC(C)(C)C)cc-3oc2c1 [Chemical Formula 8]
>10 | 3 | >10 | CCN(CCOC(=O)Nc1ccccc1)c1ccc2c(-c3ccccc3S(=O)(=O)[O-])c3cc/c(=[N+](/CC)CCOC(=O)Nc4ccccc4)cc-3oc2c1 [Chemical Formula 10]

Second part, the compound before the results:

SMILES | Amount of dissolved compound (CH2Cl2) [% wt %] | Amount of dissolved compound (Cyclohexanone) [% wt %] | Amount of dissolved compound (MeOH) [% wt %]
CCN(CCOC(=O)NC(C)(C)C)c1ccc2c(-c3ccccc3S(=O)(=O)[O-])c3ccc(=[N+](CC)CC)cc-3oc2c1 [Chemical Formula 5] | >7 | 3 | >7
CCN(CCOC(=O)NC1CCCCC1)c1ccc2c(-c3ccccc3S(=O)(=O)[O-])c3ccc(=[N+](CC)CC)cc-3oc2c1 [Chemical Formula 6] | >7 | 3 | >7
CCN(CCOC(=O)NC1CCCCC1)c1ccc2c(-c3ccccc3S(=O)(=O)[O-])c3cc/c(=[N+](/CC)CCOC(=O)NC4CCCCC4)cc-3oc2c1 [Chemical Formula 9] | >10 | 5 | >10
